Results: article PMC12236907, “A Natural Depsipeptide Antibiotic that Targets the E site of the Bacterial Ribosome” (Research Square, 2025)
Entries after “also recorded” stand apart in the source; their conditions may differ. Where a SMILES comes first, the peptide text is derived from it. Bridges are numbered along the chain shown (N, C = ends). [ ]: non-standard residue; d: D form. dOrn = NCCC[C@@H](N)C(=O)O

Tests used:
[1] = test system: E. coli S30 extract transcription-translation system; assay: Inhibition of protein synthesis in E. coli cell-free transcription-translation system; type: biochemical; settings: E. coli S30 lysate, pBESTluc plasmid, 0.05 to 100 μM, 1 h at 37°C, luminescence; mean ±SD of three technical replicates
Description: The impact of MKM-A and MKM-E on in vitro protein synthesis was evaluated using the E. coli S30 extract transcription-translation system (Promega) following the manufacturer’s protocol. The pBESTluc plasmid DNA was utilized as the template to produce firefly luciferase. MKM analogues were tested across a concentration range of 0.05 to 100 μM. The reactions were incubated for one hour at 37°C. Luminescence was then measured in opaque 96-well plates using a Synergy Microplate Reader (Biotek). The IC50 values, indicating the concentration at which MKMs inhibited protein synthesis by 50%, were determined using GraphPad Prism 10 software.

[2] = test system: K. pneumoniae ATCC 33495 and C1559; assay: C. elegans – K. pneumoniae in vivo antibiotic activity assay (survival); parameters: species or system K. pneumoniae in Caenorhabditis elegans
Description: A C. elegans double mutant strain, AU37 (glp-4(bn2);sek-1(km4)), was used for this assay due to its enhanced pathogen infection sensitivity and temperature-sensitive sterility. The infection protocol was carried out as previously described, with slight modifications to accommodate our experimental conditions. Standard C. elegans media and protocols were used for the maintenance and growth of worms. To summarize, eggs were collected from gravid adult worms by bleaching and incubated on solid agar plates at 25 °C for 48 hours, until early adulthood. Worms were thoroughly washed with M9 buffer and transferred onto LB agar plates containing lawns of infective K. pneumoniae and incubated for another 24 hours. Worms were then washed from plates and resuspended in M9 to an approximate 2 worm per microlitre concentration. A survival assay was conducted in a 96-well plate with experimental wells containing 15 μl of worms, 80 μl S-basal (5.85 g NaCl, 1 g K2HPO4, 6 g KH2PO4, 1 ml cholesterol (5 mg/ml in ethanol), H2O to 1 litre. Sterilize by autoclaving), and 5 μl of test compound. Plates were sealed with a porous film and incubated at 25°C for a total of 7 days. The number of dead worms were counted every 24 hours to generate a Kaplan-Meier survival curve.

[3] = test system: bacteria with resistance mechanisms to other translation-inhibiting antibiotics; settings: bacterial pathogens; unique site of action in the ribosome
E. coli = assay: Antimicrobial activity, E. coli; type: cell-based, Escherichia coli
ribosome = assay: Ribosome profiling (Ribo-seq)
bacterial membrane = assay: Membrane permeabilization (propidium iodide uptake and NPN assays); type: cell-based; settings: E. coli BW25113; PI 4 μM up to 10×MIC (80 μg/ml), NPN 10 μM; 30 min, room temperature
Description: E. coli BW25113 cells were prepared according to the method for time-dependent killing and mixed with propidium iodide at a final concentration of 4 μM. A 190 μl aliquot of the cell suspension was added to the wells of a 96-well black-wall plate, followed by the addition of 10 μl of compounds at different concentrations up to 10×MIC (80 μg/ml). Colistin (5 μg/ml) was included as a positive control. Fluorescence was measured at an excitation/emission wavelength of 535/617 nm for 30 min at room temperature using a Synergy Microplate Reader (Biotek).
An overnight culture of E. coli BW25113 was subcultured into fresh MOPS minimal medium and allowed to grow until reaching mid-exponential phase. The culture was then diluted to an OD 600 of 0.1–0.2 in the same medium and supplemented with 10 μM NPN dye (prepared from a 20 mM stock solution in acetone). A volume of 190 μl of this cell suspension was combined with 10 μl of test compounds at various concentrations in a black 96-well plate. Water served as the vehicle control, as MKM-A was dissolved in water (adjust the vehicle accordingly based on the solubility of your compound). Colistin at 5 μg/ml was included as a positive control. Fluorescence was measured over a 30 min period at room temperature using a microplate reader, with readings taken every 0.5–1 min at an excitation/emission wavelength of 350/420 nm.

mycobacteria = assay: Antimicrobial activity, mycobacteria; type: cell-based; settings: Middlebrook 7H9 + 10% OADC + 0.05% Tween-80
Murine infection model = type: in vivo; settings: initial attempts
E. coli BW25113 = assay: Bacterial cell morphology by scanning electron microscopy; type: cell-based; settings: E. coli BW25113, 32 and 80 μg/ml, MOPS minimal medium, 1 h at 37°C
Description: After treatment, the cells were centrifuged at 5,000×g for 5 min, then resuspended in a fixative solution (4% glutaraldehyde in PBS, pH 7.4) at 0.1× the original volume. The cells were fixed at room temperature for 1 h and stored overnight at 4 °C. The following day, 50 μl of the fixed cells were transferred onto coverslips coated with poly-L-lysine, dehydrated through a series of ethanol treatments, and dried using a critical point dryer. The samples were then examined with a scanning electron microscope (TESCAN VEGA-II LSU) equipped with an X-MAX 80mm^2 EDS detector, and images were captured using INCA software.

[4] = target: rabbit reticulocyte lysate; assay: Inhibition of protein synthesis in rabbit reticulocyte lysate programmed with luciferase mRNA; type: biochemical

In the case of `C[C@@H](O)[C@@H]1NC(=O)[C@@H](CCCNC(=N)N)NC(=O)[C@@H](CCCNC(=N)N)NC(=O)[C@@H](CC(N)=O)NC(=O)[C@@H](NC(=O)[C@@H](Cc2ccccc2)NC(=O)[C@@H](CCCN)NC(=O)[C@H](N)CCCNC(=N)N)[C@@H](C)OC(=O)[C@H](Cc2c[nH]cn2)NC1=O` [MKM, manikomycin A] (H-[dR][dOrn][dF]T[dN][dR][dR]TH; ester 4-C), the IC50 [1] is reported as 0.6 µM, the “survival benefit in C. elegans (in words)” value ([2]; MKM 64 μg/ml or polymyxin B 25 μg/ml, 6 days, vs DMSO, Log-rank (Mantel–Cox) test) is reported as “significantly improved survival; also recorded: markedly improved survival” and the “nematodes alive by day 6” value ([2]; MKM 64 μg/ml, both infection models (ATCC 33495 and C1559), DMSO ~10% (ATCC 33495), ~30% (C1559), n > 60 worms per group) is reported as 55–60%. For the same compound, the “sensitivity to resistance mechanisms against other translation inhibitors” value [3] was “insensitive to resistance mechanisms”, the antimicrobial activity (E. coli) was “selective antimicrobial activity” and the metagene ribosome occupancy (ribosome; E. coli BL21ΔtolC, 50 μg/ml (25×MIC), 2 min) was “increased ribosome occupancy at the early mRNA codons”. The “codon depletion at MKM-induced arrest sites” value (ribosome; E. coli BL21ΔtolC, 50 μg/ml (25×MIC), 2 min, pLogo) was “exclusion of Thr at the sites of MKM-induced arrest”, the “codon enrichment at MKM-induced stalling sites” value (ribosome; E. coli BL21ΔtolC, 50 μg/ml (25×MIC), 2 min, pLogo, sites with ≥5-fold higher occupancy) was “enrichment of Pro codons in the P and A sites” and the “context specificity of action (summary)” value (ribosome; ribosome profiling and toeprinting, Pro, Leu, Thr codons) was “more efficiently inhibiting ribosomes translating Pro and Leu codons and exhibiting less effect on those translating Thr codons”. The “membrane permeabilization / disruption” value (bacterial membrane) was “failed to permeabilize or distrupt the bacterial membrane”, the growth inhibition (mycobacteria) was “readily inhibits the growth” and the “protective effect in murine infection model” value (Murine infection model) was “did not yield a strong protective effect”. For the same compound, the bacterial cell morphology (E. coli BW25113) was “no detectable changes in bacterial cell morphology”, the “IC50 ratio rabbit reticulocyte lysate / bacterial system” value ([4]; IC50 9.2 μM vs 0.6 μM in E. coli system) was “approximately 15 fold” and the “inhibition of eukaryotic / mammalian translation (in words)” value ([4]; rabbit reticulocyte lysate (Fig. 2d)) was “poor inhibition; also recorded: very weak inhibitor”. The IC50 ([4]; rabbit reticulocyte lysate, luciferase mRNA) was 9.2 µM and the “IC50 ratio to cycloheximide” value ([4]; rabbit reticulocyte lysate, higher than cycloheximide) was 35 fold.
